Laboratory results taken from ChEMBL document CHEMBL1201862, “PubChem BioAssay data set” (2004).
Activity calls are given as the source filed them.

Key:
[1] = A Cell Based Secondary Assay To Explore Cytotoxicity of Compounds that Sensitize Mycobacterium Tuberculosis to Beta-Lactam Antibiotics.; format: functional
[2] = target: T1, Apoptotic protease-activating factor 1 (Homo sapiens, UniProt O14727); format: functional
T1 sequence (O14727 whole entry): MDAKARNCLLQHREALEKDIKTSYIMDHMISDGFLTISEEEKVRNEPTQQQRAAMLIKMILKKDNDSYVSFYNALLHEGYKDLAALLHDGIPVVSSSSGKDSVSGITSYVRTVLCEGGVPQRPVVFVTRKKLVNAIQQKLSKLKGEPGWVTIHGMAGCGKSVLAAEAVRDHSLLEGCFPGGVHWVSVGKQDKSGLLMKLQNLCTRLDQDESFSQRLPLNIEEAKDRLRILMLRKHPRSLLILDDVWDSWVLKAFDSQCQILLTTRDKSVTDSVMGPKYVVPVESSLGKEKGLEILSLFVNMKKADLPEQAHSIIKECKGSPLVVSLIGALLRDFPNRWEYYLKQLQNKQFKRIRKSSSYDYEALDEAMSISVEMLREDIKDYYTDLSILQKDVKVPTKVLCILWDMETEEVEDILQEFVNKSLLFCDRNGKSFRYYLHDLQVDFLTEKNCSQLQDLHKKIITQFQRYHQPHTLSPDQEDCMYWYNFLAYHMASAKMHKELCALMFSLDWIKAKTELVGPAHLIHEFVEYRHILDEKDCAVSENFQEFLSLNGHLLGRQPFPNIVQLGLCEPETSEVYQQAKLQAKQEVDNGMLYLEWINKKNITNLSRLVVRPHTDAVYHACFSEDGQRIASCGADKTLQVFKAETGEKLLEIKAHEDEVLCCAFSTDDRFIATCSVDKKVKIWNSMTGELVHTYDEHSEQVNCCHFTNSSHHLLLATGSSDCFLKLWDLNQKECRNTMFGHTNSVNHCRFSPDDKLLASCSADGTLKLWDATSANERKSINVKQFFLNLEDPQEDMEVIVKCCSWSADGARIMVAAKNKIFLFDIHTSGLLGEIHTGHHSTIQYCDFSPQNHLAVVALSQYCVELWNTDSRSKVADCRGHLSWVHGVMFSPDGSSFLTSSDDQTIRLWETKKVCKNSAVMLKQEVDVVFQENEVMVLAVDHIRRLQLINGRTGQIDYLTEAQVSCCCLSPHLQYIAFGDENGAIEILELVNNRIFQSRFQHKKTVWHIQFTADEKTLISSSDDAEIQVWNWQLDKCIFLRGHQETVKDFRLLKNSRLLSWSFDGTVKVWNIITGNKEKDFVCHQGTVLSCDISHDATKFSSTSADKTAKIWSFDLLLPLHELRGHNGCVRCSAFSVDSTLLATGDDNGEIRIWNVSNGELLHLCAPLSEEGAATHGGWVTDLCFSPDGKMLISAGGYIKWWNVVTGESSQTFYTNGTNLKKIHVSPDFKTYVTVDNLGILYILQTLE

[3] = blockers of HIV-1 envelope-mediated cell-cell fusion – cherry-pick, dose response (AID 652057); format: functional, cell-based
[4] = blockers of HIV-1 ZM109 envelope-driven cell-cell fusion – HeLa effector, CEM target cells, luciferase, cherry-pick, dose response (AID 652058); format: functional, cell-based;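 note: luciferase signal from HIV-1 Env mediated cell-cell fusion of effector and target cells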
[5] = off-target signal loss in HeLa-CEM21 co-culture – HeLa F-luc CTL cells, cherry-picked, counter-screen for HIV-1 Env fusion inhibitor project, dose response (AID 652040); format: functional, cell-based;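 note: potency for signal decrease marking cytotoxic or nonspecific inhibition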
[6] = HIV-1 AD8 envelope cell-cell fusion blockers – cherry-pick, dose response (AID 652062); format: functional, cell-based;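 note: luciferase signal from cell-cell fusion driven by HIV-1 clade B AD8 Env; potency is for inhibitors of fusion seen as a drop in luminescence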
[7] = reduction of Shn3 3'UTR-driven luciferase in osteoblasts – cell-based, Clone20 osteoblasts, firefly luciferase, cherry-picked, dose response (AID 624132); format: functional;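 note: firefly luciferase luminescence from reporter carrying the Shn3 3'UTR in osteoblasts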
[8] = loss of viability in HepG2 cells – cell-based, CellTiter-Glo, cherry-picked, cytotoxicity control for Shn3 inhibitor project, dose response (AID 624134); format: functional
[9] = non-specific 3'UTR reporter inhibition in Clone20-Shn3RL – cell-based, Renilla luciferase, cherry-picked, counter-screen for Shn3 inhibitor project, dose response (AID 624133); format: functional
[10] = Trypanosoma cruzi growth suppression in host cells – NIH3T3 host cells, beta-gal luminescence, confirmation (AID 2044); format: functional, cell-based;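 note: intracellular parasites grown in NIH/3T3 mouse fibroblasts as host cells; luminescent beta-galactosidase reporter signal from transgenic T. cruzi replicating inside host cells; inhibitors lower the luminescence signal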
[11] = NIH3T3 cell viability loss – ATP luminescence, mouse fibroblasts, counter-screen, dose response (AID 2010); format: functional, cell-based;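 note: cells exposed to compound for about 90 hours before reading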
INS1 = experiment: INS-1E survival protection against cytokine death – cell-based, luminescence, retest, dose response (AID 449756); format: functional; details: Rattus norvegicus;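 note: cell death triggered by IL-1 beta plus TNF-alpha plus IFN-gamma mixture; protective hits raise ATP signal compared with cytokine alone wells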
[12] = Luminescence Cell-Based Dose Retest to Confirm Inhibitors of Cancer Stem Cells. [Related pubchem assays (depositor defined):AID2717, AID2721]; format: functional; details: Homo sapiens
[13] = target: T2, High affinity choline transporter 1 (Homo sapiens, UniProt Q9GZV3); experiment: human choline transporter blockers, potency – cell-based, 5-point CRC, membrane potential dye, dose response (AID 504840); format: functional
T2 sequence (Q9GZV3 whole entry): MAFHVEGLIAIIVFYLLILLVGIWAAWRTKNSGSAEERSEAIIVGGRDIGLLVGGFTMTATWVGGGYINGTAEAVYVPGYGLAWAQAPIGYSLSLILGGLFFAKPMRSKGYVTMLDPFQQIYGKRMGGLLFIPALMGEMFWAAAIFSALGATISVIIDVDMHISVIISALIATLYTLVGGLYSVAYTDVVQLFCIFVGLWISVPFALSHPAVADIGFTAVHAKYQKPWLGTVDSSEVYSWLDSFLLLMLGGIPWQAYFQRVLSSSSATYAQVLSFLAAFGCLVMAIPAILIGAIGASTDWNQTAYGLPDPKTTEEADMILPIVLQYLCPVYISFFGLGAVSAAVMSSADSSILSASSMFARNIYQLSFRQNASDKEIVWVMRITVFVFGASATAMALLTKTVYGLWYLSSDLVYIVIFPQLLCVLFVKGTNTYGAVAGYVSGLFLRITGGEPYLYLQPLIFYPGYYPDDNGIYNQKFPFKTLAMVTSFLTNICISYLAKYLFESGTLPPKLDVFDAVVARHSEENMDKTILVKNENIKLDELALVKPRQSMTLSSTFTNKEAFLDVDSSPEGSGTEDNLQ

[14] = target: T3, Ubiquitin-conjugating enzyme E2 N (Homo sapiens, UniProt P61088); format: functional;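 note: Dose-response confirmation in a TR-FRET assay detecting UBC13-driven polyubiquitin chain formation, inhibition measured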
T3 sequence (P61088 whole entry): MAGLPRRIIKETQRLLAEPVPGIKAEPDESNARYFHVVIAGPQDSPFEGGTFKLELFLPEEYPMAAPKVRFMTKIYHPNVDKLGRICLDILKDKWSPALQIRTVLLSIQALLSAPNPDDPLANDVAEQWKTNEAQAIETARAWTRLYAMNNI

[15] = A549 cell cytotoxicity, dose response, cytotoxicity control, plate reader, cherry-pick, antagonist series (AID 743412); format: functional, cell-based
[16] = toxicity toward HepG2 liver cells – cell-based, plate reader, cherry-pick, antagonist series, cytotoxicity control, dose response (AID 743416); format: functional
[17] = blockers of bursicon-stimulated LGR2 cAMP reporter – cell-based, HEK293, CRE-luciferase reporter, cherry pick, set 2, dose response (AID 743343); format: functional;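 note: transfected cells were stimulated with diluted bursicon conditioned medium after compound addition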
[18] = viability loss in HEK293 cells – cell-based, plate reader, cherry-picked samples, cytotoxicity control, dose response (AID 743446); format: functional

Cc1nn(-c2ccccc2)c(O)c1/C=N/NC(=O)c1ccoc1C
CC50 [1]: 4.71 µM (active) | IC50 [2]: 11.2 µM (active)

COc1ccc(Cl)cc1NC(=O)CN(C1CCCCC1)S(C)(=O)=O
AC50 [3]: 3.13 µM (active) | AC50 [4]: 5.49 µM (active) | AC50 [5]: 4.33 µM (active) | AC50 [6]: 2.69 µM (active)

CCN1C[C@@H]2[C@@H]3C(=O)N(Cc4ccccc4)C(=O)[C@@H]3[C@](CC)(C1=O)N2C(=O)c1ccc(C(C)(C)C)cc1
AC50 [3]: 5.77 µM (active) | AC50 [4]: 20.2 µM (active) | AC50 [5]: 15.4 µM (active) | AC50 [6]: 4.4 µM (active)

Cc1ccc(S(=O)(=O)N(C)C[C@@H]2Oc3ccc(NC(=O)C4CCCCC4)cc3CC(=O)N([C@@H](C)CO)C[C@@H]2C)cc1
AC50 [3]: 3.75 µM (active) | AC50 [4]: 2 µM (active) | AC50 [6]: 12.2 µM (active)

CC(C)CC(=O)NC(=S)Nc1ccc(N2CCN(C(=O)c3cccs3)CC2)cc1
CC50 [1]: 18.2 µM (active) | AC50 [7]: 2.54 µM (active) | AC50 [8]: 41.2 µM (active) | AC50 [9]: > 70 µM (inactive)

CCOc1ccc(-[n+]2c(-c3ccccc3)cn3c2CCC3)cc1
EC50 [10]: 0.351 µM (active) | EC50 [11]: 24.2 µM (active) | AC50 (INS1): 1.43 µM (active) | AC50 [7]: 0.526 µM (active) | AC50 [8]: 49 µM (active) | AC50 [9]: 0.392 µM (active)

CCOc1ccccc1CNc1ncnc2ccc(-c3c(C)noc3C)cc12
AC50 [12]: 21.6 µM (active) | AC50 [5]: > 70 µM (inactive) | AC50 [6]: 44.5 µM (active)

CC(C)C[C@H]1COCn2nncc2CC[C@@H](Cc2ccccc2)C(=O)N1
AC50 [3]: 7.3 µM (active) | AC50 [4]: 7.51 µM (active) | AC50 [6]: 12.9 µM (active)

CN(Cc1cccs1)c1ncnc2sccc12
IC50 [13]: 4.57 µM (active) | AC50 [4]: 1.3 µM (active) | AC50 [5]: 56.6 µM (active) | AC50 [6]: 16.9 µM (active)

CCOc1cc(/C=C/C(=O)Nc2ccc(C(=O)NCCN(CC)CC)cc2)ccc1OCC(C)C
IC50 [14]: > 20 µM (inactive) | IC50 [2]: 28.5 µM (active) | AC50 [15]: 7.77 µM (active) | AC50 [16]: 7.47 µM (active) | AC50 [17]: 35 µM (active) | AC50 [18]: 7.83 µM (active)
